Test results published in PubChem BioAssay AID863 (NMMLSC, 2007).
Calls of active or inactive are those of the source. How the calls were made is not given here.

Each compound was assayed against fMet-Leu-Phe receptor (Homo sapiens) (UniProt P21462) (assay: formyl peptide receptor 1 antagonism, calcium readout – U937 cells, fMLFF stimulus, Fluo4, flow cytometry, SAR follow-up (AID 863)). Conditions: FPR-expressing U937 cells, fMLFF-induced Fluo4 calcium flux, 80 s, active compounds read high, concentration not given here.
Sequence of fMet-Leu-Phe receptor (Homo sapiens) (P21462 whole entry, looked up): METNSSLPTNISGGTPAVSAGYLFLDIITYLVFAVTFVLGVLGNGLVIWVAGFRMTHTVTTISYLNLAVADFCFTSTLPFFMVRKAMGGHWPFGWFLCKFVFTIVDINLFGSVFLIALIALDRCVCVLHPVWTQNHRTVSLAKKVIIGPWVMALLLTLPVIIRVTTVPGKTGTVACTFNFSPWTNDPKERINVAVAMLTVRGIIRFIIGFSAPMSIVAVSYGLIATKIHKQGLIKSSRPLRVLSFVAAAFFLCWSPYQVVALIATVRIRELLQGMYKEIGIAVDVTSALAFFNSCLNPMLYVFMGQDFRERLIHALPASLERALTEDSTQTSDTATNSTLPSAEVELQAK

Row | Structure (SMILES) | inhibition
1 | COc1ccc(-c2c(C(F)(F)F)oc3cc(OC(=O)c4ccco4)ccc3c2=O)cc1OC | 93%
2 | COc1ccc(C2C(C(=O)c3cccs3)=C(O)C(=O)N2CCCn2ccnc2)cc1 (centres undefined) | 96.9%
3 | COc1ccc(OC)c(C2/C(=C(\O)c3ccccc3)C(=O)C(=O)N2c2cccnc2)c1 (centres undefined) | 40.7% (inactive)
4 | Cc1nc2c(-c3ccc(Cl)cc3)c(C(F)(F)F)[nH]n2c(=O)c1Cc1ccccc1 | 98.1%
5 | O=C(C1=C(O)C(=O)N(CCc2ccccc2)C1c1ccc(Cl)cc1)c1cccs1 (centres undefined) | 81.3% (inactive)
6 | COc1ccc(-c2c(C(F)(F)F)oc3cc(OC(=O)c4cccnc4)ccc3c2=O)cc1OC | 85.6% (inactive)
7 | COc1ccc(C2C(C(=O)c3cccs3)=C(O)C(=O)N2CCN2CCOCC2)c(OC)c1 (centres undefined) | 72.3% (inactive)
8 | COCCN1C(=O)C(=O)/C(=C(/O)c2ccccc2)C1c1cc(OC)ccc1OC (centres undefined) | 97.5%
9 | O=C(Oc1ccc2c(=O)c(-c3ccccc3Cl)c(C(F)(F)F)oc2c1)c1cccs1 | 185%
10 | COc1ccc(C2/C(=C(\O)c3ccccc3)C(=O)C(=O)N2CCCn2ccnc2)c(OC)c1 (centres undefined) | 99.5%
11 | CCc1cc2c(=O)c(-c3nc4ccccc4n3C)c(C)oc2cc1OC(C)=O | 101%
12 | CCCCCCN1C(=O)C(=O)/C(=C(\O)c2ccccc2)C1c1ccc(O)c(OC)c1 (centres undefined) | 44% (inactive)
13 | COc1ccc(C2C(C(=O)c3ccco3)=C(O)C(=O)N2CCN2CCOCC2)c(OC)c1 (centres undefined) | 58.1% (inactive)
14 | COc1ccccc1-c1c(C(F)(F)F)oc2cc(OC(=O)c3ccco3)ccc2c1=O | 98.8%
